According to the supplement of paper PMC10307832:

What was measured:
Assay in all cases: relative viability (nuclei count vs DMSO), 5 days (fraction); higher = more cells survive
[1] = compound: C1=CC=C2C(=C1)N=C(S2)C(C#N)C3=NC(=NC=C3)NCCC4=CN=CC=C4 + CC(=O)Nc1cccc(-n2c(=O)n(C3CC3)c(=O)c3c(Nc4ccc(I)cc4F)n(C)c(=O)c(C)c32)c1 [Trametinib] (partner 0.02 µM)
Procedure, shortened: (§1)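 Lung cancer cell lines were seeded in 1536-well plates and dosed by pin tool the next day, with either a single drug or a fixed anchor-drug dose combined with five library-drug doses (not always all listed) spaced in √10 steps. Five days later, one step fixed the cells and stained their nuclei (final 0.05% Triton X-100, 1% formaldehyde, 1 ug/ml Hoechst), and nuclei were counted on 4× images. Relative viability is the nuclei count in treated wells divided by the count in vehicle wells, and each value is the median of duplicate plates.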

[2] = compound: C1=CC=C2C(=C1)N=C(S2)C(C#N)C3=NC(=NC=C3)NCCC4=CN=CC=C4 + COc1cc2c(Oc3ccc(NC(=O)C4(C(=O)Nc5ccc(F)cc5)CC4)cc3F)ccnc2cc1OCCCN1CCOCC1 [Foretinib] (partner 0.25 µM)
Procedure, shortened: as §1

Vandetanib + Trametinib = compound: COc1cc2/c(=N/c3ccc(Br)cc3F)nc[nH]c2cc1OCC1CCN(C)CC1 [Vandetanib] + CC(=O)Nc1cccc(-n2c(=O)n(C3CC3)c(=O)c3c(Nc4ccc(I)cc4F)n(C)c(=O)c(C)c32)c1 [Trametinib] (partner 0.02 µM)
Procedure, shortened: as §1

NVP-TAE684 + Vorinostat = compound: COc1cc(N2CCC(N3CCN(C)CC3)CC2)ccc1Nc1ncc(Cl)c(Nc2ccccc2S(=O)(=O)C(C)C)n1 [NVP-TAE684] + O=C(CCCCCCC(=O)Nc1ccccc1)NO [Vorinostat] (partner 1 µM)
Procedure, shortened: as §1

Cell Line | relative viability ([1]; first compound 0.01581 µM) | relative viability ([1]; first compound 0.05 µM) | relative viability ([1]; first compound 0.1581 µM) | relative viability ([1]; first compound 0.5 µM) | relative viability ([2]; first compound 0.005 µM) | relative viability ([2]; first compound 0.01581 µM) | relative viability ([2]; first compound 0.05 µM) | relative viability ([2]; first compound 0.1581 µM) | relative viability ([2]; first compound 0.5 µM) | relative viability (Vandetanib + Trametinib; first compound 0.02 µM) | relative viability (Vandetanib + Trametinib; first compound 0.06325 µM) | relative viability (Vandetanib + Trametinib; first compound 0.2 µM) | relative viability (Vandetanib + Trametinib; first compound 0.6325 µM) | relative viability (Vandetanib + Trametinib; first compound 2 µM) | relative viability (NVP-TAE684 + Vorinostat; first compound 0.2 µM) | relative viability (NVP-TAE684 + Vorinostat; first compound 0.6325 µM) | relative viability (NVP-TAE684 + Vorinostat; first compound 2 µM) | relative viability ([1]; first compound 0.005 µM)
NCI-H1793 | 0.397 | 0.423 | 0.475 | 0.488 | 0.714 | 0.71 | 0.58 | 0.775 | 0.679 | 0.479 | 0.362 | 0.47 | 0.418 | 0.408 | 1.14 | 0.575 | 0.878 | –
HARA | 0.475 | 0.49 | 1.31 | 0.576 | 0.869 | 0.876 | 0.831 | 0.975 | 0.786 | 0.515 | 0.522 | 0.574 | 0.857 | 0.523 | 0.525 | 0.464 | 0.23 | 0.685
LXF-289 | 0.726 | 0.716 | 0.706 | 0.577 | 0.898 | 1.02 | 0.988 | 1.01 | 0.826 | 0.681 | 0.663 | 0.606 | 0.69 | 0.677 | 0.671 | 0.676 | 0.723 | 0.601
201T | 0.756 | 0.739 | 0.748 | 0.693 | 1.19 | – | 1.01 | 1.08 | 0.625 | 0.715 | 0.68 | 0.751 | 0.696 | 0.676 | 1.02 | 1 | 0.831 | 0.675
LCLC-103H | 0.735 | 0.692 | 0.695 | 0.659 | 0.801 | 0.8 | 0.894 | 0.828 | 0.737 | 0.665 | 0.606 | 0.638 | 0.677 | 0.695 | 0.725 | 0.759 | 0.653 | 0.648
NCI-H520 | 0.684 | 0.765 | 0.799 | 0.824 | 0.718 | 0.983 | 0.853 | 0.878 | 0.842 | 0.627 | 0.642 | 0.577 | 0.687 | 0.68 | 0.776 | 0.681 | 0.313 | 0.659
RERF-LC-KJ | 0.877 | 0.911 | 0.961 | 0.688 | 0.966 | 0.826 | 0.86 | 0.882 | 0.762 | 0.808 | 0.933 | 0.528 | 0.831 | 0.688 | 0.589 | 0.644 | 0.48 | 0.916
NCI-H1975 | 0.362 | 0.293 | 0.414 | 0.329 | 0.779 | 0.897 | 0.846 | 1.08 | 0.73 | 0.356 | 0.344 | 0.378 | 0.35 | 0.365 | 0.694 | 0.666 | 0.263 | 0.377
PC-3 [JPC-3] | – | 0.642 | 0.737 | 0.636 | 0.984 | 1.12 | 1.07 | 1.14 | 0.961 | 0.682 | 0.577 | 0.584 | 0.513 | 0.435 | 0.908 | 0.72 | 0.578 | 0.689
